Assay results reported in publication PMC10178127, “Immunomodulatory Effects of the Pea Defensin Psd1 in the Caco-2/Immune Cells Co-Culture upon Candida albicans Infection” (International Journal of Molecular Sciences, 2023).

How the values were obtained:
[1] = system: monocyte-derived dendritic cells (moDCs); experiment: Multiplex xMAP cytokine production, direct stimulation of moDCs; type: cell-based, human; conditions: 24 h
Method: Primary peripheral blood mononuclear cells (PBMCs) collected from healthy donors were purchased from American Type Culture Collection (ATCC PCS-800-011). Primary CD14^+ blood monocytes were isolated from PBMCs by adherence according to standard technique. Monocyte-derived mature dendritic cells (moDCs) were obtained from CD14^+ blood monocytes according to the previously reported protocol. Briefly, blood monocytes were incubated in a complete RPMI-1640 medium (Capricorn Scientific, Ebsdorfergrund, Germany), containing 10% fetal bovine serum (FBS, Capricorn Scientific, Ebsdorfergrund, Germany), 1× antibiotic-antimycotic solution (Invitrogen, Waltham, MA, USA), 800 U/mL rhGM-CSF (Sci-Store, Moscow, Russia) and 500 U/mL rhIL-4 (Sci-Store) for 3 days in CellXpert C170i CO2-incubator (Eppendorf, Hamburg, Germany). Fresh complete RPMI-1640 medium with rhGM-CSF and rhIL-4 was added to the culture on day 3. On day 5, fresh complete RPMI-1640 containing 100 U/mL rhTNF-α (Sigma-Aldrich, St. Louis, MO, USA) as well as 800 U/mL rhGM-CSF and 500 U/mL rhIL-4 was added and the culture was incubated for another 4 days until full maturation.
Monocytes and moDCs were seeded into the wells of 48- and 24-well plates in the complete RPMI-1640 medium supplemented with 10% human AB serum (HABS, Capricorn Scientific) without antibiotics 24 h prior to the experiment, and kept in a humidified CO2-incubator (5% CO2, 37 °C). After 24 h, the medium in the wells of the 48-well plate was replaced by fresh complete RPMI-1640 medium with 10% HABS, supplemented with 2 µM of Psd1 for the sample wells or fresh medium alone for the control wells. Medium in the wells of the 24-well plate was replaced by fresh complete RPMI-1640 medium with 10% human serum without antibiotics. Then, Millicell inserts with Caco-2 monolayers with TEER > 400 Ωcm^2 were placed into the wells of the 24-well plate, containing monocytes or moDCs. Wells with Millicell inserts with Caco-2 monolayers without immune cells were used as control wells. Medium in apical chambers of Millicell inserts was replaced by fresh complete RPMI-1640 with 10% human serum medium containing Psd1 at the final concentration of 2 µM or Candida albicans at the concentration of 5 × 10^4 cells/mL or yeast cells together with the pea defensin at the same concentration. Fresh complete RPMI-1640 medium only with 10% human serum and without antibiotics was used in control wells. Plates were kept in CO2-incubator (5% CO2, 37 °C) for another 24 h. Culture supernatants from the wells of the 48-well plate and basolateral chambers of the 24-well plate were collected and stored at −70 °C degrees less than one month prior to the analytes assessment.
The following 48 analytes were measured at a protein level by multiplex xMAP technology using the MILLIPLEX Human Cytokine/Chemokine/Growth Factor Panel A kit (HCYTA-60K-PX48, Merck, Darmstadt, Germany): sCD40L, EGF, Eotaxin-1/CCL11, FGF-2/FGF-basic, Flt-3 ligand, Fractalkine/CX3CL1, G-CSF, GM-CSF, GROα/CXCL1, IFNα2, IFNγ, IL-1α, IL-1β, IL-1RA, IL-2, IL-3, IL-4, IL-5, IL-6, IL-7, IL-8/CXCL8, IL-9, IL-10, IL-12(p40), IL-12(p70), IL-13, IL-15, IL-17A/CTLA8, IL-17E/IL-25, IL-17F, IL-18, IL-22, IL-27, IP-10/CXCL10, MCP-1/CCL2, MCP-3/CCL7, M-CSF, MDC/CCL22, MIG/CXCL9, MIP-1α/CCL3, MIP-1β/CCL4, PDGF-AA, PDGF-AB/BB, RANTES/CCL5, TGFα, TNFα, TNFβ, and VEGF-A. Multiplex-based assay read-out was performed using the MAGPIX system (Merck) with the xPONENT 4.2 software (Merck) in accordance with the manufacturer’s instruction with overnight incubation of the samples with primary antibodies. A final analysis was carried out with the MILLIPLEX Analyst v5.1 software (Merck). Measurements were performed twice for each sample. Release of the analytes in control and experimental samples was compared with an unpaired two-sample t-test using GraphPad Prism v.8.0.1 (GraphPad Software, Inc., San Diego, CA, USA). The p values ≤ 0.05 were considered significant.

Candida albicans enzymes = conditions: cited from earlier work

Psd1: pea defensin from Pisum sativum (UNIPROT P81929), recombinant peptide overexpressed in Escherichia coli (KTCEHLADTYRGVCFTNASCDDHCKNKAHLISGTCHNWKCFCTQNC; UniProt P81929 1-46, looked up)
EGF level ([1]; moDCs+Psd1, 2 µM, supernatant): 6.22 pg/mL | Eotaxin level ([1]; moDCs+Psd1, 2 µM, supernatant): <3.52↓ pg/ml | FGF-2 level ([1]; moDCs+Psd1, 2 µM, supernatant): 55.36 pg/mL | FLT-3L level ([1]; moDCs+Psd1, 2 µM, supernatant): 1.05 pg/mL | Fractalkine level ([1]; moDCs+Psd1, 2 µM, supernatant): <17.82↓ pg/ml | G-CSF level ([1]; moDCs+Psd1, 2 µM, supernatant): 49.49 pg/mL | GM-CSF level ([1]; moDCs+Psd1, 2 µM, supernatant): 11.89 pg/mL | GROa level ([1]; moDCs+Psd1, 2 µM, supernatant): <0.61↓ pg/ml | IFNa2 level ([1]; moDCs+Psd1, 2 µM, supernatant): 12.78 pg/mL | IFNg level ([1]; moDCs+Psd1, 2 µM, supernatant): 7.25 pg/mL | IL-1RA level ([1]; moDCs+Psd1, 2 µM, supernatant): 53.29 pg/mL | IL-1a level ([1]; moDCs+Psd1, 2 µM, supernatant): 12.23 pg/mL | IL-1b level ([1]; moDCs+Psd1, 2 µM, supernatant): <2.26↓ pg/ml | IL-2 level ([1]; moDCs+Psd1, 2 µM, supernatant): 1.82 pg/mL | IL-3 level ([1]; moDCs+Psd1, 2 µM, supernatant): 1.61 pg/mL | IL-4 level ([1]; moDCs+Psd1, 2 µM, supernatant): <1.14↓ pg/ml | IL-5 level ([1]; moDCs+Psd1, 2 µM, supernatant): 4.15 pg/mL | IL-6 level ([1]; moDCs+Psd1, 2 µM, supernatant): 14.4 pg/mL | IL-7 level ([1]; moDCs+Psd1, 2 µM, supernatant): <0.38↓ pg/ml | IL-8 level ([1]; moDCs+Psd1, 2 µM, supernatant): 345.9 pg/mL | IL-9 level ([1]; moDCs+Psd1, 2 µM, supernatant): 3.67 pg/mL | IL-10 level ([1]; moDCs+Psd1, 2 µM, supernatant): 33.74 pg/mL | IL-12 (p40) level ([1]; moDCs+Psd1, 2 µM, supernatant): 98.57 pg/mL | IL-12 (p70) level ([1]; moDCs+Psd1, 2 µM, supernatant): <1.68↓ pg/ml | IL-13 level ([1]; moDCs+Psd1, 2 µM, supernatant): 19.51 pg/mL | IL-15 level ([1]; moDCs+Psd1, 2 µM, supernatant): 12.91 pg/mL | IL-17A level ([1]; moDCs+Psd1, 2 µM, supernatant): 3.9 pg/mL | IL-17E/IL-25 level ([1]; moDCs+Psd1, 2 µM, supernatant): <18.85↓ pg/ml | IL-17F level ([1]; moDCs+Psd1, 2 µM, supernatant): <19.03↓ pg/ml | IL-18 level ([1]; moDCs+Psd1, 2 µM, supernatant): 2.59 pg/mL | IL-22 level ([1]; moDCs+Psd1, 2 µM, supernatant): 12.46 pg/mL | IL-27 level ([1]; moDCs+Psd1, 2 µM, supernatant): 135.68 pg/mL | IP-10 level ([1]; moDCs+Psd1, 2 µM, supernatant): 8892 pg/mL | M-GSF level ([1]; moDCs+Psd1, 2 µM, supernatant): 218.78 pg/mL | MCP-1 level ([1]; moDCs+Psd1, 2 µM, supernatant): 1760 pg/mL | MCP-3 level ([1]; moDCs+Psd1, 2 µM, supernatant): 49.77 pg/mL | MDC level ([1]; moDCs+Psd1, 2 µM, supernatant): 3016 pg/mL | MIG level ([1]; moDCs+Psd1, 2 µM, supernatant): 30050 pg/mL | MIP-1a level ([1]; moDCs+Psd1, 2 µM, supernatant): 185.33 pg/mL | MIP-1b level ([1]; moDCs+Psd1, 2 µM, supernatant): 554.97 pg/mL | PDGF-AA level ([1]; moDCs+Psd1, 2 µM, supernatant): 89.5 pg/mL | PDGF-AB/BB level ([1]; moDCs+Psd1, 2 µM, supernatant): 139.81 pg/mL | RANTES level ([1]; moDCs+Psd1, 2 µM, supernatant): 65.35 pg/mL | TGF-a level ([1]; moDCs+Psd1, 2 µM, supernatant): 113.74 pg/mL | TNFa level ([1]; moDCs+Psd1, 2 µM, supernatant): 55.68 pg/mL | TNFb level ([1]; moDCs+Psd1, 2 µM, supernatant): 2.29 pg/mL | VEGFa level ([1]; moDCs+Psd1, 2 µM, supernatant): <1.40↓ pg/ml | sCD40L level ([1]; moDCs+Psd1, 2 µM, supernatant): 133.96 pg/mL | increase in IL-12, IL-15, IL-27 and MCP-1 ([1]; moDCs, 2 μM): statistically significant | production of TNFα, IL-6, IL-8, IP-10, MCP-3, and G-CSF ([1]; moDCs, 2 μM): increased | stability to proteolysis by Candida albicans enzymes (Candida albicans enzymes): stable to proteolysis by Candida albicans enzymes
